# Assay results reported in patent US12351587B2, “Bicyclic compound as RIP-1 kinase inhibitor and application thereof” (MEDSHINE DISCOVERY INC., priority 2019, dated 2025).
# Experiments:
# [1] = Plasma protein binding rate (PPB), human plasma; format: in vitro ADME; settings: 2 μM, dialysis 4 hours 37° C.
# Procedure: (§1) 796 μL of bank plasma from humans, SD rats and CD-1 mice (plasma purchased from BioreclamationIVT) were weighed, and the assay compound working solution or warfarin working solution was added so that the final concentration of the assay compound and warfarin in the plasma sample was 2 μM. The samples were mixed thoroughly. The final concentration of DMSO in the organic phase was 0.5%, 50 μL of plasma samples of the assay compound and warfarin were pipetted to a sample receiving plate, and the corresponding volume of the corresponding blank plasma or buffer was added immediately, so that the final volume in each sample well was 100 μL, wherein the volume ratio of plasma:dialysis buffer was 1:1. Stop solution was then added to these samples. These samples were used as T0 samples for determination of recovery and stability. The plasma samples of the assay compound and warfarin were added to the dosing end of each dialysis well, and blank dialysis buffer was added to the corresponding receiving end of the dialysis well. […] All samples were subjected to protein precipitation, and then analyzed by LC/MS/MS. Unbound rate (% Unbound), bound rate (% Bound), and recovery rate (% Recovery) of the compound were calculated using the following formulae: % Unbound=100*FC/TC, % Bond=100−% Unbound, and % Recovery=100*[…]/T0, […]
# LIMK2 = biological target: T1, LIMK2 (Homo sapiens, UniProt P53671); assay: Kinase selectivity assay (Eurofins, 33P radiolabeled kinase activity): LIMK2; format: biochemical; settings: WX009 1 μM, ATP 10 μM, read-out: Inhibition rate
# T1 construct: purchased Eurofins Pharma Discovery Service
# Procedure: (§2) The purpose of this assay was to detect the in vitro inhibitory activity of WX009 on a variety of kinases. The kinases used in this assay included 413 kinases, and the activity detection method was provided by Eurofins Pharma Discovery Service A method of detecting ^33P radiolabeled kinase activity was used for the assay. The concentration of WX009 was 1 μM, and the concentration of ATP was 10 μM.
# [2] = Plasma protein binding rate (PPB), rat plasma; format: in vitro ADME, SD rats; settings: 2 μM, dialysis 4 hours 37° C.
# Procedure: as §1
# [3] = Plasma protein binding rate (PPB), mouse plasma; format: in vitro ADME, CD-1 mice; settings: 2 μM, dialysis 4 hours 37° C.
# Procedure: as §1
# U937 cells = assay: U937 cell activity assay: TNFα/QVD-OPh-induced programmed cell necrosis (necroptosis); format: cell-based, human; settings: Homo sapiens, U-937, 24 h, QVD-OPh 25 μM + TNF-α 100 ng/mL, CellTiter Glo
# Procedure: 1.2 Instrument and Materials
# Envision plate reader (Perkin Elmer, Cat #2104-0010)
# 1.3 Formulation of Reagents • (1) 1×DPSB: To 100 mL of 10×DPBS was added 900 mL of deionized water. • (2) 1640 complete medium: To 89 mL of RPMI-1640 medium were added 10 mL of FBS and 1 mL of penicillin/streptomycin 2. Assay Steps • 1. U937 cells were centrifuged, and then the medium was discarded. The cells were resuspended in 1640 complete medium and counted. The cell concentration was adjusted to 5×10^5 cells/mL for use, and the cells were arranged according to compounds to be assayed. • 2. To the prepared resuspension of U937 cells were added QVD-OPh at a final concentration of 25 μM and TNF-α at a final concentration of 100 ng/mL, and then the mixture was mixed gently. • 3. To a 384-well plate was added 30 μL/well of U937 cells containing 25 μM of QVD-OPh and TNF-α at a final concentration of 100 ng/mL, and blank control wells without QVD-OPh and TNF-α were set up. • 4. To the dosing group […] added 10 μL of the assay compound at 4 times the preset concentration, and to the blank control well was added DMSO at the corresponding concentration. • 5. The 384-well plate was placed in a 37° C. and 5% CO2 cell incubator for 24 hours. • 6. After 24 hours, the 384-well plate was taken out and equilibrated at room temperature for 20 minutes. • 7. 40 μL of CTG was added to each well, and then the plate was shaken on a shaker in the dark for 2 minutes. • 8. The plate was incubated at room temperature in the dark for 10 minutes, and then read using an Envision plate reader.
# [4] = system: All other kinases (411 of 413 kinases); assay: Kinase selectivity assay (Eurofins, 33P radiolabeled kinase activity): all other kinases; format: biochemical; settings: WX009 1 μM, ATP 10 μM
# Procedure: as §2
# T1 sequence (P53671 whole entry, species assumed): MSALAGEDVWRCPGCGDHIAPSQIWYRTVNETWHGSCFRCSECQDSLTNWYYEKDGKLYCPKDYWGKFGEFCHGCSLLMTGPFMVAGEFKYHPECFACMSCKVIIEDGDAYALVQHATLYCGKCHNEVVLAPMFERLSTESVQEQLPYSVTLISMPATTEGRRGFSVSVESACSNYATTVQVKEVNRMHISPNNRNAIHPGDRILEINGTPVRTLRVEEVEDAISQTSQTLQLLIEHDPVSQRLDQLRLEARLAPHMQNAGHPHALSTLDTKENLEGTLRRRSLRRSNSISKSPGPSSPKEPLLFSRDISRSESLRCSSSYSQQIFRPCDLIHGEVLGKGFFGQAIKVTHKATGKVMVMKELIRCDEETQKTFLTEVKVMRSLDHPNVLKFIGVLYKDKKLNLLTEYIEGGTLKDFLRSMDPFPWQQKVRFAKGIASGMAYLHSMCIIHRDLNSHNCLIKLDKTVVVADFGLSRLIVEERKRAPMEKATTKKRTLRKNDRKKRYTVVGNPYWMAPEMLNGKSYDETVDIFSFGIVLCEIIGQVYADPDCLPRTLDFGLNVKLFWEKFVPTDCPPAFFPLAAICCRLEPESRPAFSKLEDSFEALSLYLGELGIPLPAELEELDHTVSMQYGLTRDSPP
smiles,measurement,setting,value
CN1C(=S)[C@@H](NC(=O)c2ncn(Cc3ccccc3)n2)COc2cccnc21 [WX009],PPB_Unbound,[1],5.7%
same,inhibition at 1 µM,LIMK2,50 to 79%
same,PPB_Unbound,[2],29.7%
same,PPB_Unbound,[3],7.0%
same,IC50,U937 cells,1.4 nM
same,Inhibition rate,[4],<50%
